Experimental findings from US20110201628A1, “HETEROCYCLIC JAK KINASE INHIBITORS” (priority 2008, published 2011) are described below.

The experiment addresses T1, C-terminal His6-tagged, recombinant, human JAK2, amino acids 808-end (Homo sapiens, UniProt O60674).
T1 construct: His6 (C); purchased Upstate Biotechnology MA; host or cells: baculovirus in Sf21 cells
As to the kind of experiment: JAK2 kinase Alphascreen assay (Method 1). The class given is biochemical. How it is done:
To measure JAK2 kinase activity, a commercially available purified enzyme may be used. […] After incubation of the kinase with a biotinylated substrate and adenosine triphosphate (ATP) for 60 minutes at room temperature, the kinase reaction may be stopped by the addition of 30 mM ethylenediaminetetraacetic acid (EDTA). The reaction may be performed in 384 well microtitre plates and the reaction products may be detected with the addition of streptavidin coated Donor Beads and phosphotyrosine-specific antibodies coated Acceptor Beads using the EnVision Multilabel Plate Reader after an overnight incubation at room temperature. “Tween 20” is a registered trademark of ICI Americas, Inc.
(In general: Alpha assays give light when donor and acceptor beads are brought close together.)

The mark [1] stands for this setting: Alphascreen, 150 pM JAK2 enzyme, 5 mM ATP, 80 nM Tyk2 peptide, 60 minutes room temperature, read-out: IC50 Assay (Method 1).

Like-named read-outs stand apart in the source and are kept apart here.

T1 sequence (O60674 808-1132 limits assumed): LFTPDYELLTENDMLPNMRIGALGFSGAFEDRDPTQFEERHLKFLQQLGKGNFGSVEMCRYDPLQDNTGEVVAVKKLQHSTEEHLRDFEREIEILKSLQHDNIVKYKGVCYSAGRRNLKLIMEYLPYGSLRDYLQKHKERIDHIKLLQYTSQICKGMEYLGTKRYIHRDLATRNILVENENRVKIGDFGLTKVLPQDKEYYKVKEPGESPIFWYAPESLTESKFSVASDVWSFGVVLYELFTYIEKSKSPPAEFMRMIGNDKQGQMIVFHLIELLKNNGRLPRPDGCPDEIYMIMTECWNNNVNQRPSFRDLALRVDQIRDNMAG

Consider `COc1ccc2nc(NC(C)c3ncc(F)cc3F)nc(Nc3cn(C)cn3)c2c1` (racemic) [Example 29, N^2-[1-(3,5-Difluoropyridin-2-yl)ethyl]-6-methoxy-N^4-(1-methyl-1H-imidazol-4-yl)quinazoline-2,4-diamine], for which, under setting [1], the IC50 was found to be 500 nM.

`CC(Nc1nc(Nc2cn(C)cn2)c2ccc(O)nc2n1)c1ncc(F)cc1F` (racemic) [Example 35, 2-{[1-(3,5-Difluoropyridin-2-yl)ethyl]amino}-4-[(1-methyl-1H-imidazol-4-yl)amino]pyrido[2,3-d]pyrimidin-7-ol]: the IC50 under setting [1] was 3 nM. The same measure, in the same setting: the value for `CC(Nc1nc(Nc2cn(C)cn2)c2ccc(Cl)nc2n1)c1ncc(F)cc1F` (racemic) [Example 44, 7-Chloro-N^2-[1-(3,5-difluoropyridin-2-yl)ethyl]-N^4-(1-methyl-1H-imidazol-4-yl)pyrido[2,3-d]pyrimidine-2,4-diamine] was 3 nM; that for `CC(Nc1nc2c(c(Nc3cn(C)cn3)n1)CNCC2)c1ncc(F)cn1` (single isomer, unassigned) [17(a), N^2-[1-(5-Fluoropyrimidin-2-yl)ethyl]-N^4-(1-methyl-1H-imidazol-4-yl)-5,6,7,8-tetrahydropyrido[4,3-d]pyrimidine-2,4-diamine] was 220 nM. On the same count and under the same terms, to `CC(Nc1nc2c(c(Nc3cn(C)cn3)n1)CNCC2)c1ncc(F)cn1` (single isomer, unassigned) [17(b), N^2-[1-(5-Fluoropyrimidin-2-yl)ethyl]-N^4-(1-methyl-1H-imidazol-4-yl)-5,6,7,8-tetrahydropyrido[4,3-d]pyrimidine-2,4-diamine] belongs 2000 nM. On the same count and under the same terms, to `CC(Nc1nc(Nc2cn(C)cn2)c2ccsc2n1)c1ncc(F)cn1` (single isomer, unassigned) [Example 1(a), N^2-[1-(5-Fluoropyrimidin-2-yl)ethyl]-N^4-(1-methyl-1H-imidazol-4-yl)thieno[2,3-d]pyrimidine-2,4-diamine] belongs 28800 nM. Regarding `CC(Nc1nc(Nc2cn(C)cn2)c2ccsc2n1)c1ncc(F)cn1` (single isomer, unassigned) [Example 1(b), N^2-[1-(5-Fluoropyrimidin-2-yl)ethyl]-N^4-(1-methyl-1H-imidazol-4-yl)thieno[2,3-d]pyrimidine-2,4-diamine], the IC50 under setting [1] is under 3 nM. `Cc1nc2c(Nc3cn(C)cn3)nc(NC(C)c3ncc(F)cn3)nc2s1` (single isomer, unassigned) [Example 7(a), N^5-[1-(5-Fluoropyrimidin-2-yl)ethyl]-2-methyl-N^7-(1-methyl-1H-imidazol-4-yl)[1,3]thiazolo[5,4-d]pyrimidine-5,7-diamine]: under setting [1], the IC50 stood at 570 nM. On the same count and under the same terms, the value for `Cc1nc2c(Nc3cn(C)cn3)nc(NC(C)c3ncc(F)cn3)nc2s1` (single isomer, unassigned) [Example 7(b), N^5-[1-(5-Fluoropyrimidin-2-yl)ethyl]-2-methyl-N^7-(1-meth 1-1H-imidazol-4-yl)[1,3]thiazolo[5,4-d]pyrimidine-5,7-diamine] was 21600 nM. Still for that read-out and setting: to `CC(Nc1nc2c(c(Nc3cn(C)cn3)n1)CCC2)c1ncc(F)cn1` (single isomer, unassigned) [Example 8(a), N^2-[1-(5-Fluoropyrimidin-2-yl)ethyl]-N^4-(1-methyl-1H-imidazol-4-yl)-6,7-dihydro-5H-cyclopenta[d]pyrimidine-2,4-diamine] belongs 20000 nM.

As to `CC(Nc1nc2c(c(Nc3cn(C)cn3)n1)CCC2)c1ncc(F)cn1` (single isomer, unassigned) [Example 8(b), N^2-[1-(5-Fluoropyrimidin-2-yl)ethyl]-N^4-(1-methyl-1H-imidazol-4-yl)-6,7-dihydro-5H-cyclopenta[d]pyrimidine-2,4-diamine], the IC50 under setting [1] is under 3 nM.

On to `CC(Nc1nc(Nc2cn(C)cn2)c2nccnc2n1)c1ncc(F)cn1` (single isomer, unassigned) [Example 10(a), N^2-[1-(5-Fluoropyrimidin-2-yl)ethyl]-N^4-(1-methyl-1H-imidazol-4-yl)pteridine-2,4-diamine], for which the IC50 under setting [1] worked out at 6400 nM. On to `CC(Nc1nc(Nc2cn(C)cn2)c2nccnc2n1)c1ncc(F)cn1` (single isomer, unassigned) [Example 10(b), N^2-[1-(5-Fluoropyrimidin-2-yl)ethyl]-N^4-(1-methyl-1H-imidazol-4-yl)pteridine-2,4-diamine], for which the IC50 under setting [1] was 200 nM. With `CC(Nc1nc(Nc2cn(C)cn2)c2cnn(C)c2n1)c1ncc(F)cn1` (single isomer, unassigned) [Example 11(a), N^6-[1-(5-Fluoropyrimidin-2-yl)ethyl]-1-methyl-N^4-(1-methyl-1H-imidazol-4-yl)-1H-pyrazolo[3,4-d]pyrimidine-4,6-diamine], under setting [1], the concentration for half-maximal inhibition (IC50) turned out to be 6400 nM. For `CC(Nc1nc(Nc2cn(C)cn2)c2cnn(C)c2n1)c1ncc(F)cn1` (single isomer, unassigned) [Example 11(b), N^6-[1-(5-Fluoropyrimidin-2-yl)ethyl]1-methyl-N^4-(1-methyl-1H-imidazol-4-yl)-1H-pyrazolo[3,4-d]pyrimidine-4,6-diamine], under setting [1], the IC50 is under 3 nM. Same read-out and setting: to `CC(Nc1nc(Nc2cn(C)cn2)c2cccnc2n1)c1ncc(F)cc1F` (single isomer, unassigned) [Example 12(a), N^2-[1-(3,5-Difluoropyridin-2-yl)ethyl]-N^4-(1-methyl-1H-imidazol-4-yl)pyrido[2,3-d]pyrimidine-2,4-diamine] belongs under 3 nM; to `CC(Nc1nc(Nc2cn(C)cn2)c2cccnc2n1)c1ncc(F)cc1F` (single isomer, unassigned) [Example 12(b), N^2-[1-(3,5-Difluoropyridin-2-yl)ethyl]-N^4-(1-methyl-1H-imidazol-4-yl)pyrido[2,3-d]pyrimidine-2,4-diamine], 470 nM. On the same count and under the same terms, to `COCC(Nc1nc(Nc2cn(C)cn2)c2cnn(C)c2n1)c1ncc(F)cc1F` (single isomer, unassigned) [Example 13(a)] belongs 3240 nM; to `COCC(Nc1nc(Nc2cn(C)cn2)c2cnn(C)c2n1)c1ncc(F)cc1F` (single isomer, unassigned) [Example 13(b), N^6-[1-(3,5-Difluoropyridin-2-yl)-2-methoxyethyl]-1-methyl-N^4-(1-methyl-1H-imidazol-4-yl)-1H-pyrazolo[3,4-d]pyrimidine-4,6-diamine], under 3 nM; to `CC(Nc1nc(Nc2cn(C)cn2)c2cnn(C)c2n1)c1ncc(F)cc1F` (single isomer, unassigned) [Example 14(a), N^6-[1-(3,5-Difluoropyridin-2-yl)ethyl]-1-methyl-N^4-(1-methyl-1H-imidazol-4-yl)-1H-pyrazolo[3,4-d]pyrimidine-4,6-diamine], 5400 nM. Still for that read-out and setting: to `CC(Nc1nc(Nc2cn(C)cn2)c2cnn(C)c2n1)c1ncc(F)cc1F` (single isomer, unassigned) [Example 14(b), N^6-[1-(3,5-Difluoropyridin-2-yl)ethyl]-1-methyl-N^4-(1-methyl-1H-imidazol-4-yl)-1H-pyrazolo[3,4-d]pyrimidine-4,6-diamine] belongs under 3 nM; to `CC(Nc1nc2c(c(Nc3cn(C)cn3)n1)CNC2)c1ncc(F)cn1` (single isomer, unassigned) [Example 18(a), N^2-[1-(5-Fluoropyrimidin-2-yl)ethyl]-N^4-(1-methyl-1H-imidazol-4-yl)-6,7-dihydro-5H-pyrrolo[3,4-d]pyrimidine-2,4-diamine], 4300 nM.

On to `CC(Nc1nc2c(c(Nc3cn(C)cn3)n1)CNC2)c1ncc(F)cn1` (single isomer, unassigned) [Example 18(b), N^2-[1-(5-Fluoropyrimidin-2-yl)ethyl]-N^4-(1-methyl-1H-imidazol-4-yl)-6,7-dihydro-5H-pyrrolo[3,4-d]pyrimidine-2,4-diamine], for which the IC50 under setting [1] stood at 450 nM. On the same count and under the same terms, the value for `CC(Nc1nc(Nc2cn(C)cn2)c2ccn(C)c2n1)c1ncc(F)cn1` (single isomer, unassigned) [Example 23(a), N^2-[1-(5-Fluoropyrimidin-2-yl)ethyl]-7-methyl-N^4-(1-methyl-1H-imidazol-4-yl)-7H-pyrrolo[2,3-d]pyrimidine-2,4-diamine] was under 3 nM; that for `CC(Nc1nc(Nc2cn(C)cn2)c2cc(F)cnc2n1)c1ncc(F)cn1` (single isomer, unassigned) [Example 38(a), 6-Fluoro-N^2-[1-(5-fluoropyrimidin-2-yl)ethyl]-N^4-(1-methyl-1H-imidazol-4-yl)pyrido[2,3-d]pyrimidine-2,4-diamine] was 100 nM.

For the compound `CC(Nc1nc(Nc2cn(C)cn2)c2cc(F)cnc2n1)c1ncc(F)cn1` (single isomer, unassigned) [Example 38(b), 6-Fluoro-N^2-[1-(5-fluoropyrimidin-2-yl)ethyl]-N^4-(1-methyl-1H-imidazol-4-yl)pyrido[2,3-d]pyrimidine-2,4-diamine], the IC50 (IC50 Assay (Method 1)) was determined as 490 nM. In the case of `CC(Nc1nc(Nc2cn(C)cn2)c2ccc(N3CCOCC3)nc2n1)c1ncc(F)cc1F` (single isomer, unassigned) [Example 40(a), N^2-[1-(3,5-Difluoropyridin-2-yl)ethyl]-N^4-(1-methyl-1H-imidazol-4-yl)-7-morpholin-4-ylpyrido[2,3-d]pyrimidine-2,4-diamine], the IC50 under setting [1] worked out at 490 nM. On the same count and under the same terms, the value for `CC(Nc1nc(Nc2cn(C)cn2)c2ccc(N3CCOCC3)nc2n1)c1ncc(F)cc1F` (single isomer, unassigned) [Example 40(b), N^2-[1-(3,5-Difluoropyridin-2-yl)ethyl]-N^4-(1-methyl-1H-imidazol-4-yl)-7-morpholin-4-ylpyrido[2,3-d]pyrimidine-2,4-diamine] was under 3 nM.

By IC50 is commonly meant the concentration that gives 50% inhibition.
